Experimental findings from patent US20230111672A1, “COMPOSITIONS AND METHODS FOR PRODUCTION OF RECOMBINANT ADENO-ASSOCIATED VIRUS” (The Regents of the University of California, priority 2020, published 2023) are described below.

Holding throughout (format): cell-based, human
Assay [1] relates to HEK293T cells. The experiment in a line: rAAV titer by qPCR at 72 hrs post transfection, rAAV packaging in HEK293T cells. As to the method:
(§1) The effect of thymidine treatment for rAAV packaging was assessed with the following description. rAAV manufacturing in HEK293T cells was achieved by transfecting cells with the transgene (ss-CAG-eGFP), the adenoviral helper plasmid pHelper, and rAAV2(Rep/Cap) helper plasmid in accordance with the standard protocol of PEI (polyethyleneimine) transfection (Ojala et al. 2018). Thymidine was added onto media without media change at 24 or 48 hrs post transfection and then cell pellets were harvested at 72 hrs post transfection (FIG. 2).
(§2) The number of total cells was counted for the evaluation of cell growth prior to harvesting the cell pellet (FIG. 3A). […] Next, cell lysate samples were incubated with Benzonase as well as DNase to remove residual plasmid, and rAAV titer with or without thymidine treatment was determined by quantitative polymerase chain reaction (qPCR) with specific primers for the transgene, eGFP (FIG. 3B). rAAV titer was then normalized to total cell count to compare viral titers in vg/cell (viral genomes/cell) (FIG. 3C).
FIG. 3A-3C. rAAV titer at 72 h with thymidine treatment. HEK293T cells were split into 10 cm′ cell culture dishes at 3.0×10^6 cells/plate and transfected with the plasmids for rAAV packaging. Cell pellets at 72 hrs post transfection were lysed by freezing and thawing and then incubated with Benzonase, followed by DNase. Subsequent Proteinase K digestion released AAV genome ssDNA from the AAV vector, which were subjected into qPCR for measuring rAAV genome copy number. Error bars, mean±SD. *P<0.05, (All statistics are the result of a student's two tailed t-test with paired variance).
A general note: Real-time PCR tracks product formation cycle by cycle.

For another assay, the system named is HEK 293T cells. Kind of assay: Cell cycle arrest by thymidine treatment, flow cytometry with DAPI or EdU incorporation. As to conditions: 4 mM thymidine, 24 hrs post treatment. As to the method: HEK 293T cells were treated with thymidine and analyzed using flow cytometry with DAPI (4′,6-diamidino-2-phenylindole) or EdU (5-ethynyl-2′-deoxyuridine) incorporation at 24 hrs post treatment.
FIG. 1A-1B. Verification of cell cycle arrest by thymidine treatment. HEK293T cells were split into 10 cm′ cell culture dishes at 3.0e6 cells/plate. Thymidine stock was prepared with molecular biology grade distilled water at a concentration of 200 mM. The final concentration of thymidine in the culture medium was 4 mM. Two hrs before harvest, cells were incubated with EdU and were harvested for flow cytometry. DAPI staining and EdU assay were performed in accordance with the manufacturer's protocol.

Another assay deals with HEK293 cells. Kind of assay: rAAV titer by qPCR at 96 hrs post transfection, rAAV packaging in HEK293 cells. The conditions noted are these: HEK293, thymidine added 24 hrs post transfection, harvest at 96 hrs. As for the experimental part:
To assess the generality of the result, HEK293 cells were tested, using a different packaging method than that used for HEK293T cells. HEK293 cells were seeded at high concentration and incubated for 72 hrs to reach 100% confluency and then transfected with plasmids. Thymidine was added 24 hrs post transfection, and pellets were harvested at 96 hrs post transfection (FIG. 4).
FIG. 5. HEK293 Cells were seeded at 1.0×10^5 cell/cm′ into 10 cm′ cell culture dish and transfected with the plasmids for rAAV packaging. Thymidine was treated at 24 hrs post transfection and cell pellets were harvested at 96 hrs post transfection. rAAV titer was measured by qPCR in the same method of FIG. 3. Error bars, mean±SD.

Assay [2] has as its system HEK293T cells. Kind of assay: Total cell count prior to harvesting the cell pellet, rAAV packaging cultures. As to conditions: counted prior to harvest at 72 hrs post transfection. As for the experimental part: as §1, §2
FIG. 3A-3C. rAAV titer at 72 h with thymidine treatment. HEK293T cells were split into 10 cm′ cell culture dishes at 3.0×10^6 cells/plate and transfected with the plasmids for rAAV packaging. Cell pellets at 72 hrs post transfection were lysed by freezing and thawing and then incubated with Benzonase, followed by DNase. […]

Assay [3] has as its system HEK293T cells. The experiment in a line: rAAV titer following transfection with and without pHelper. The conditions noted are these: thymidine added at 24 hrs post transfection, harvest at 72 hrs. The source says: Plasmids containing adenoviral genes that promote AAV replication and vector production, such as pHelper, have previously been essential for rAAV packaging. That is, AAV requires co-infection of helper virus or introduction of a DNA-damaging agent to complete life cycle (Yakobson, Koch, and Winocour 1987; Yalklnoglu et al. 1988), functions that in rAAV manufacturing are typically replaced by transfection with a plasmid such as pHelper. The present disclosure provides the use of thymidine as a replacement for pHelper. The positive control cells were transfected with the three plasmids (AAV vector, AAV helper, pHelper) while the negative control cells were transfected without pHelper. In some samples, thymidine was added at 24 hrs post transfection (FIG. 6).
FIG. 6. HEK293T cells were transfected with plasmids in accordance with the indication and then thymidine was added at 24 hrs post transfection. All cells were harvested at 72 hrs post transfection and rAAV titer were determined. Error bars, mean±SD.

`Cc1cn([C@H]2C[C@H](O)[C@@H](CO)O2)c(=O)[nH]c1=O` [thymidine]: the “rAAV titer in vg/ml, fold higher than control” value with HEK293T cells [1] (thymidine treatment 24-72h post transfection, qPCR) was determined as 2.77 fold; with HEK293T cells [1] (thymidine treatment 48-72h post transfection, qPCR) it was 2.19 fold. Also, the “rAAV titer, fold higher than that on control cells” value in the assay on HEK293T cells [1] (thymidine treatment 24-72h post transfection, qPCR, basis not printed (second value after vg/ml)) is recorded as 5.38 fold. In the assay with HEK293T cells [1] (thymidine treatment 48-72h post transfection, qPCR normalized to total cell count), the “rAAV titer in vg/cell, fold higher than control” value stood at 3.52 fold. Moreover, in the assay with HEK 293T cells (EdU 2 hrs before harvest), the EdU incorporation result is given as “no incorporation has occurred”. In addition, the “Cell cycle phase of cell population, total DNA stained by DAPI” value with HEK 293T cells (flow cytometry) was “predominantly in the S-phase section”. Further, the “rAAV titer in vg/ml, fold higher than control cells” value in the assay on HEK293 cells stood at 1.75 fold. In addition, in the assay on HEK293T cells [2], the “Total cell count vs control group” value is recorded as “lower cell count than the control group”. In the assay with HEK293T cells [3], the “rAAV packaging in the absence of pHelper” value is reported as “rAAV was packaged in the absence of pHelper only when the thymidine was added”.
